Experimental data published in publication PMC11597817, “Modulation of Multispecific Transporters by Uncaria tomentosa Extract and Its Major Phytoconstituents” (Pharmaceutics, 2024).
Where two headings read alike, the source gives them in different places.

Tests used:
OATP1A2 = target: T1, OATP1A2 (Homo sapiens, UniProt P46721); test: Uptake inhibition assay, OATP1A2-overexpressing HEK293 cells; type: cell-based; conditions: oxindole alkaloids; substrate E3S; read-out: IC50 (95% CI of IC50)
T1 construct: expressed in transfected cells; host or cells: HEK293 (lentiviral transduction; cDNA synthesised by GenScript)
Protocol: (§1) The human embryonic kidney 293 (HEK293) cell line was purchased from Invitrogen/ThermoFisher (Waltham, MA, USA). Madin–Darby canine kidney II (MDCKII) wild type cells were obtained from the European Collection of Authenticated Cell Cultures (ECACC catalog no. 00062107). […]
(§2) Plated cells were preincubated with a transport buffer (HBSS) containing 30 or 150 µg/mL of UT extract or 100 µM of isopteropodine, mitraphylline, or uncarine D for 15 min at an appropriate temperature. […] For radiolabeled substrates, accumulation was measured by liquid scintillation counting (MicroBeta Scintillation Counter, PerkinElmer).
(§3) The transporter-mediated uptake and ATP-dependent transport were determined by subtracting the activity of the control cell/transporter abundant-membrane in the presence of AMP from the activity of the transporter-overexpressing cell/transporter-abundant membrane in the presence of ATP. The relative transporter-specific accumulation was expressed as the percent of DMSO activity. […] Confidence intervals (CIs) of 95% were also determined. […]

ENT4 = target: T2, ENT4 (Homo sapiens, UniProt Q7RTT9); test: Uptake inhibition assay, ENT4-overexpressing HEK293 cells; type: cell-based; conditions: 100 µM alkaloid
T2 construct: expressed in transfected cells; host or cells: HEK293 (lentiviral transduction; cDNA synthesised by GenScript)
Protocol: as §1, §2, §3

OAT2 = target: T3, OAT2 (Homo sapiens, UniProt Q9Y694); test: Uptake inhibition assay, OAT2-overexpressing HEK293 cells; type: cell-based; conditions: at 100 µM
T3 construct: expressed in transfected cells; host or cells: HEK293 (lentiviral transduction; cDNA synthesised by GenScript)
Protocol: as §1, §2, §3

OATP1B3 = target: T4, OATP1B3 (Homo sapiens, UniProt Q9NPD5); test: Uptake inhibition assay, OATP1B3-overexpressing HEK293 cells; type: cell-based; conditions: oxindole alkaloids, substrate CCK-8, read-out: IC50 (95% CI of IC50)
T4 construct: expressed in transfected cells; host or cells: HEK293 (lentiviral transduction; cDNA synthesised by GenScript)
Protocol: as §1, §2, §3

MRPs = conditions: cited from earlier work
OCTN1 = target: T5, OCTN1 (Homo sapiens, UniProt Q9H015); test: Uptake inhibition assay, OCTN1-overexpressing HEK293 cells; type: cell-based; conditions: in the presence of the alkaloid (100 µM, Figure 3)
T5 construct: expressed in transfected cells; host or cells: HEK293 (lentiviral transduction; cDNA synthesised by GenScript)
Protocol: as §1, §2, §3

ENT1 = target: T6, ENT1 (Homo sapiens, UniProt Q99808); test: Uptake inhibition assay, ENT1-overexpressing MDCKII cells; type: cell-based; conditions: for IC50: oxindole alkaloids, substrate uridine, read-out: IC50 (95% CI of IC50)
T6 construct: expressed in transfected cells; host or cells: MDCKII (lentiviral transduction; cDNA synthesised by GenScript)
T6 sequence (Q99808 1-456): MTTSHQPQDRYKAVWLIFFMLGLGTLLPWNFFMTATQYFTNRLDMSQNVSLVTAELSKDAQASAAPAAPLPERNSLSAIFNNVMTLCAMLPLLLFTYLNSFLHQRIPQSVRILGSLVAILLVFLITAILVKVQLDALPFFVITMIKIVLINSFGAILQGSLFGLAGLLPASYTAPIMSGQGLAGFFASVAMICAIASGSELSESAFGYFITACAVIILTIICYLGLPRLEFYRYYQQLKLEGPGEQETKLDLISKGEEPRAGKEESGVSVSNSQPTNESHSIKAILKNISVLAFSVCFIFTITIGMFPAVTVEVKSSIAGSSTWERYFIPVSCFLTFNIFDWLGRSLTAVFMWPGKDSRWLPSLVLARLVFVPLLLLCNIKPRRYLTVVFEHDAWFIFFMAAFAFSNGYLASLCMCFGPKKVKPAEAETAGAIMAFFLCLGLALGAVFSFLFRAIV
Text: The human embryonic kidney 293 (HEK293) cell line was purchased from Invitrogen/ThermoFisher (Waltham, MA, USA). Madin–Darby canine kidney II (MDCKII) wild type cells were obtained from the European Collection of Authenticated Cell Cultures (ECACC catalog no. 00062107). HEK293 cells overexpressing the human uptake OATP1B1 (NCBI Reference Sequence: NM_006446.4), OATP1B3 (NM_019844), OATP2B1 (NM_007256), OATP1A2 (NM_134431), OAT1-3 (BC033682.1; NM_006672.3; BC022387), OCT1-3 (BC126364.1; NM_003058; NM_021977), OCTN1 (NM_003059.3), NTCP (NM_003049.3), MATE1 (NM_018242.3), MATE2K (NM_001099646.2), ENT4 (NM_001040661.1), SGLT2 (AJ133127.1), ASCT1/2 (NM_003038.5; NM_005628.3), LAT1/2 (NM_003486.6; NM_012244.4), and THTR1/2 (NM_006996; NM_025243) and mock and human efflux BCRP (NM_004827.2), BSEP (NM_003742.2), MDR1 (NM_000927.4), and MRP1-5 (NM_004996; NM_000392.4; BC137347.1; NM_005845.4; NM_005688.2) transporters as well as MDCKII overexpressing human ENT1/2 (NM_001078177; NM_001532.2) and URAT1 (BC053348) transporters were created by lentiviral transduction. The cDNA encoding respective transporters were synthetized and cloned by GenScript (Piscataway, NJ, USA). […]
as §2, §3

T4 sequence (Q9NPD5 whole entry): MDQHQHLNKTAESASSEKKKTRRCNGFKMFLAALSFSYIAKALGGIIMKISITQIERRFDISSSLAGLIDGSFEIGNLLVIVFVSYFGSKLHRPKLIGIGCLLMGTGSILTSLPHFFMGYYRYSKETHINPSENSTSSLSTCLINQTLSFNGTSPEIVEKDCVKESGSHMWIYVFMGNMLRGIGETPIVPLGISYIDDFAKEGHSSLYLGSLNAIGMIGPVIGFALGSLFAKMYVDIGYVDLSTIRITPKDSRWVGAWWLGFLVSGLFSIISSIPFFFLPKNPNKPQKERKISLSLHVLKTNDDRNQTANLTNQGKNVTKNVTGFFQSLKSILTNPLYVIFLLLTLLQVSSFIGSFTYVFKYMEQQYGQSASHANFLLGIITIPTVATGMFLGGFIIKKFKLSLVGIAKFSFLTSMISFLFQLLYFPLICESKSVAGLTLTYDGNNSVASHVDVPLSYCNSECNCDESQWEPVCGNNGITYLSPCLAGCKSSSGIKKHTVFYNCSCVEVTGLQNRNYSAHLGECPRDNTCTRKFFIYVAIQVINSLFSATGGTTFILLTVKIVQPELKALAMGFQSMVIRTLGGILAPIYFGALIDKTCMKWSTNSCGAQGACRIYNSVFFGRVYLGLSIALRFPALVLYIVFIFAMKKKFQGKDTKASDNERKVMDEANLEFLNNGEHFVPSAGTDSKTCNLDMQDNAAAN
T1 sequence (P46721 whole entry): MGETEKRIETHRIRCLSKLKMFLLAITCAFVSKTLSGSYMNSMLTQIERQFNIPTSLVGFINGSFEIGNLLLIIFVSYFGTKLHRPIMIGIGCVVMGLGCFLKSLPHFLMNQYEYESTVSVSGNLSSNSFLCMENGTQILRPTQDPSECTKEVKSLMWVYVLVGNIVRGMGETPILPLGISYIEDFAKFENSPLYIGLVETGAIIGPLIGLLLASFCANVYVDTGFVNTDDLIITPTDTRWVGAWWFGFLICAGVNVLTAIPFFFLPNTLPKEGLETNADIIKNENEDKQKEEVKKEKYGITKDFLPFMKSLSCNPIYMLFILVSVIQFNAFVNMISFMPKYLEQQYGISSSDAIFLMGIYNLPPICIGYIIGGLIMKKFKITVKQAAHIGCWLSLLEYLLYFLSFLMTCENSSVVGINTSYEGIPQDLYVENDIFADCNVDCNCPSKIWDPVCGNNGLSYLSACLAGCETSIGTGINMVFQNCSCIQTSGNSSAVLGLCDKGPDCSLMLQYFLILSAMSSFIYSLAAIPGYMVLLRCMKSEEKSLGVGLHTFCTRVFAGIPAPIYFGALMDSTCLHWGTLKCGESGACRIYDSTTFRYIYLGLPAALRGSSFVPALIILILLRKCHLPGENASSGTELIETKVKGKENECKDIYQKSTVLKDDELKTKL
T2 sequence (Q7RTT9 whole entry): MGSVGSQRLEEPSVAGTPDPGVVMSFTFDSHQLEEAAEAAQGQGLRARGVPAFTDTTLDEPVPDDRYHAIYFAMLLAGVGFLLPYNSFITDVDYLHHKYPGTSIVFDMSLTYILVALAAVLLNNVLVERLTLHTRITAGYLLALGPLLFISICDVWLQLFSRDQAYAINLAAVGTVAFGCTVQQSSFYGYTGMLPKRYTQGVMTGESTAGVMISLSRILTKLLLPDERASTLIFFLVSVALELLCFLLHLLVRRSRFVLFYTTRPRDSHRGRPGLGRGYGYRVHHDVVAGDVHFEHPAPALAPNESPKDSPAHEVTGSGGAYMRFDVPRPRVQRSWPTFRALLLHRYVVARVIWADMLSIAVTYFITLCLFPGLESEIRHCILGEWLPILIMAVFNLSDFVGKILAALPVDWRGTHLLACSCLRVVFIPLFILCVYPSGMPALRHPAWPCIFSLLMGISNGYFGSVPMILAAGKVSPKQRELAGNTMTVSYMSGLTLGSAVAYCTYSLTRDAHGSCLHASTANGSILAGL
T5 sequence (Q9H015 whole entry): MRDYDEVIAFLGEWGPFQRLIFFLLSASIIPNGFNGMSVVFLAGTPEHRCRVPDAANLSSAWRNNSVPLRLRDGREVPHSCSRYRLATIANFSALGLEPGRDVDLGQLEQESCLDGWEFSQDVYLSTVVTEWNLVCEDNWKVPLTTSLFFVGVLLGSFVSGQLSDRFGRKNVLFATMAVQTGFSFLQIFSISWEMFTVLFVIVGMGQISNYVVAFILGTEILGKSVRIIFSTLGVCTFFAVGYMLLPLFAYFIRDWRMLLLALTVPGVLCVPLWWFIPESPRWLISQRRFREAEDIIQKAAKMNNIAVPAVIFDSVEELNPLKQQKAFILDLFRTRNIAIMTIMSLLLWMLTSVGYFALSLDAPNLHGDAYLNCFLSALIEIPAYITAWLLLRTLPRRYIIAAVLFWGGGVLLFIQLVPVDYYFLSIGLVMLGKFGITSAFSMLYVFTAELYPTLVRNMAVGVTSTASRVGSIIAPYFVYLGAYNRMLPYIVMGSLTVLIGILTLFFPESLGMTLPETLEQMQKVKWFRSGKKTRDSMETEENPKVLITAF
T3 sequence (Q9Y694 1-546 isoform Q9Y694-2): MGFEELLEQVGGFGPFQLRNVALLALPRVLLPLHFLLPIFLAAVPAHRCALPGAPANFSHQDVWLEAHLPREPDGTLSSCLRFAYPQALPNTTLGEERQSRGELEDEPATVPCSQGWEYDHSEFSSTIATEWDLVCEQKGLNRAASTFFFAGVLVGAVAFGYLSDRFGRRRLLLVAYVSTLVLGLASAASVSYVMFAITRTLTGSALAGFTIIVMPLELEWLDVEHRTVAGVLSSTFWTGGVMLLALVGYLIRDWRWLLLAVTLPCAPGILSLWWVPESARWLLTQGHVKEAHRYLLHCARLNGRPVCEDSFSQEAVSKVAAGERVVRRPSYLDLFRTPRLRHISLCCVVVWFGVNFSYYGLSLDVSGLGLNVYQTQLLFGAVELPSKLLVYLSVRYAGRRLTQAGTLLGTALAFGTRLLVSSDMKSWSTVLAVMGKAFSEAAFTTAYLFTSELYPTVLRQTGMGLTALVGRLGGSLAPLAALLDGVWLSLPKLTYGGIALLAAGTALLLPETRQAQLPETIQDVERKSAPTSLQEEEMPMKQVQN

| Structure (SMILES) | IC50 (OATP1A2) | inhibitory effect on transporter-specific transport (ENT4) | decrease of transporter-mediated transport (OAT2) | IC50 (OATP1B3; listed as Isopteropodine) | IC50 (OATP1B3) | interaction with MRPs (MRPs) | transporter-mediated substrate accumulation (OCTN1) | transporter-mediated substrate accumulation (ENT1; in the presence of the alkaloid (100 µM, Figure 3)) | IC50 (ENT1; listed as Mitraphylline) | IC50 (ENT1) |
| --- | --- | --- | --- | --- | --- | --- | --- | --- | --- | --- |
| COC(=O)C1=CO[C@@H](C)[C@@H]2CN3CC[C@@]4(C(=O)Nc5ccccc54)[C@@H]3C[C@H]12 [isopteropodine] | 36.1 µM | significantly inhibited | around 50% | 24.6 µM | 24.6 µM | – | – | – | – | – |
| COC(=O)C1=CO[C@@H](C)[C@H]2CN3CC[C@]4(C(=O)Nc5ccccc54)[C@@H]3C[C@H]12 [mitraphylline] | – | – | – | – | – | not to interact with MRPs | below 50% | below 50% | 49.6 µM | 49.6 µM |
